The supplement of paper PMC10307832

Columns and labels:
Test in all cases: relative viability (nuclei count vs DMSO), 5 days (fraction); higher = more cells survive
PC-3 [JPC-3] = system: PC-3 [JPC-3]
Procedure, shortened: (§1)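 Relative viability divides the nuclei count in treated wells by that in vehicle wells. Lung cancer cell lines were seeded in 1536-well plates, dosed by pin tool the next day, and fixed and stained after 5 days in one step with final 0.05% Triton X-100, 1% formaldehyde and 1 ug/ml Hoechst. Dosing was a single drug or a fixed anchor-drug dose plus five library-drug doses (not always all listed) in √10 steps, and values are medians of duplicate plates imaged at 4×.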

HOP-62 = system: HOP-62
Procedure, shortened: as §1

LU99A = system: LU99A
Procedure, shortened: as §1

EKVX = system: EKVX
Procedure, shortened: as §1

NCI-H3122 = system: NCI-H3122
Procedure, shortened: as §1

HCC-827 = system: HCC-827
Procedure, shortened: as §1

LCLC-97TM1 = system: LCLC-97TM1
Procedure, shortened: as §1

EPLC-272H = system: EPLC-272H
Procedure, shortened: as §1

UMC-11 = system: UMC-11
Procedure, shortened: as §1

SW 1573 = system: SW 1573
Procedure, shortened: as §1

H3255 = system: H3255
Procedure, shortened: as §1

NCI-H1650 = system: NCI-H1650
Procedure, shortened: as §1

NCI-H2228 = system: NCI-H2228
Procedure, shortened: as §1

NCI-H441 = system: NCI-H441
Procedure, shortened: as §1

LXF-289 = system: LXF-289
Procedure, shortened: as §1

NCI-H1355 = system: NCI-H1355
Procedure, shortened: as §1

NCI-H1993 = system: NCI-H1993
Procedure, shortened: as §1

NCI-H2405 = system: NCI-H2405
Procedure, shortened: as §1

ChaGo-K-1 = system: ChaGo-K-1
Procedure, shortened: as §1

SK-LU-1 = system: SK-LU-1
Procedure, shortened: as §1

SMILES: CCNC(=O)c1noc(-c2cc(C(C)C)c(O)cc2O)c1-c1ccc(CN2CCOCC2)cc1 [Luminespib] + CC(C)C[C@H](NC(=O)[C@H](Cc1ccccc1)NC(=O)c1cnccn1)B(O)O [Bortezomib] (partner 0.002 µM)
- relative viability (PC-3 [JPC-3]; first compound 0.002 µM): 0.865
- relative viability (PC-3 [JPC-3]; first compound 0.006325 µM): 0.812
- relative viability (PC-3 [JPC-3]; first compound 0.02 µM): 0.977
- relative viability (PC-3 [JPC-3]; first compound 0.06325 µM): 0.942
- relative viability (PC-3 [JPC-3]; first compound 0.2 µM): 0.503
- relative viability (HOP-62; first compound 0.002 µM): 0.652
- relative viability (HOP-62; first compound 0.006325 µM): 0.924
- relative viability (HOP-62; first compound 0.02 µM): 0.852
- relative viability (HOP-62; first compound 0.06325 µM): 0.856
- relative viability (HOP-62; first compound 0.2 µM): 0.0907
- relative viability (LU99A; first compound 0.002 µM): 1.3
- relative viability (LU99A; first compound 0.006325 µM): 1.11
- relative viability (LU99A; first compound 0.02 µM): 0.538
- relative viability (LU99A; first compound 0.06325 µM): 0.105
- relative viability (LU99A; first compound 0.2 µM): 0.117
- relative viability (EKVX; first compound 0.002 µM): 0.998
- relative viability (EKVX; first compound 0.006325 µM): 1.03
- relative viability (EKVX; first compound 0.02 µM): 0.852
- relative viability (EKVX; first compound 0.06325 µM): 0.824
- relative viability (EKVX; first compound 0.2 µM): 0.0943
- relative viability (NCI-H3122; first compound 0.002 µM): 1.01
- relative viability (NCI-H3122; first compound 0.006325 µM): 1.01
- relative viability (NCI-H3122; first compound 0.02 µM): 1.05
- relative viability (NCI-H3122; first compound 0.06325 µM): 0.165
- relative viability (NCI-H3122; first compound 0.2 µM): 0.199
- relative viability (HCC-827; first compound 0.002 µM): 1.04
- relative viability (HCC-827; first compound 0.006325 µM): 0.999
- relative viability (HCC-827; first compound 0.02 µM): 1.11
- relative viability (HCC-827; first compound 0.06325 µM): 1.22
- relative viability (HCC-827; first compound 0.2 µM): 0.66
- relative viability (LCLC-97TM1; first compound 0.002 µM): 0.876
- relative viability (LCLC-97TM1; first compound 0.006325 µM): 0.635
- relative viability (LCLC-97TM1; first compound 0.02 µM): 0.638
- relative viability (LCLC-97TM1; first compound 0.06325 µM): 0.0526
- relative viability (LCLC-97TM1; first compound 0.2 µM): 0.0579
- relative viability (EPLC-272H; first compound 0.006325 µM): 0.83
- relative viability (EPLC-272H; first compound 0.02 µM): 0.678
- relative viability (EPLC-272H; first compound 0.06325 µM): 0.913
- relative viability (EPLC-272H; first compound 0.2 µM): 0.293
- relative viability (UMC-11; first compound 0.002 µM): 0.838
- relative viability (UMC-11; first compound 0.006325 µM): 0.616
- relative viability (UMC-11; first compound 0.02 µM): 0.365
- relative viability (UMC-11; first compound 0.06325 µM): 0.226
- relative viability (UMC-11; first compound 0.2 µM): 0.087
- relative viability (SW 1573; first compound 0.002 µM): 1.07
- relative viability (SW 1573; first compound 0.006325 µM): 0.941
- relative viability (SW 1573; first compound 0.02 µM): 0.96
- relative viability (SW 1573; first compound 0.06325 µM): 0.117
- relative viability (SW 1573; first compound 0.2 µM): 0.114
- relative viability (H3255; first compound 0.002 µM): 0.615
- relative viability (H3255; first compound 0.006325 µM): 0.466
- relative viability (H3255; first compound 0.02 µM): 0.472
- relative viability (H3255; first compound 0.06325 µM): 0.376
- relative viability (H3255; first compound 0.2 µM): 0.194
- relative viability (NCI-H1650; first compound 0.002 µM): 0.209
- relative viability (NCI-H1650; first compound 0.006325 µM): 0.193
- relative viability (NCI-H1650; first compound 0.02 µM): 0.201
- relative viability (NCI-H1650; first compound 0.06325 µM): 0.222
- relative viability (NCI-H1650; first compound 0.2 µM): 0.194
- relative viability (NCI-H2228; first compound 0.002 µM): 0.985
- relative viability (NCI-H2228; first compound 0.006325 µM): 0.952
- relative viability (NCI-H2228; first compound 0.02 µM): 0.166
- relative viability (NCI-H2228; first compound 0.06325 µM): 0.196
- relative viability (NCI-H2228; first compound 0.2 µM): 0.184
- relative viability (NCI-H441; first compound 0.002 µM): 0.566
- relative viability (NCI-H441; first compound 0.006325 µM): 0.446
- relative viability (NCI-H441; first compound 0.02 µM): 0.236
- relative viability (NCI-H441; first compound 0.06325 µM): 0.127
- relative viability (NCI-H441; first compound 0.2 µM): 0.133
- relative viability (LXF-289; first compound 0.002 µM): 0.969
- relative viability (LXF-289; first compound 0.006325 µM): 0.951
- relative viability (LXF-289; first compound 0.02 µM): 1.04
- relative viability (LXF-289; first compound 0.06325 µM): 0.373
- relative viability (LXF-289; first compound 0.2 µM): 0.105
- relative viability (NCI-H1355; first compound 0.002 µM): 1.14
- relative viability (NCI-H1355; first compound 0.006325 µM): 1.12
- relative viability (NCI-H1355; first compound 0.02 µM): 0.571
- relative viability (NCI-H1355; first compound 0.06325 µM): 1
- relative viability (NCI-H1355; first compound 0.2 µM): 0.182
- relative viability (NCI-H1993; first compound 0.002 µM): 0.998
- relative viability (NCI-H1993; first compound 0.006325 µM): 1.12
- relative viability (NCI-H1993; first compound 0.02 µM): 0.68
- relative viability (NCI-H1993; first compound 0.06325 µM): 0.816
- relative viability (NCI-H1993; first compound 0.2 µM): 0.374
- relative viability (NCI-H2405; first compound 0.002 µM): 0.987
- relative viability (NCI-H2405; first compound 0.006325 µM): 0.533
- relative viability (NCI-H2405; first compound 0.02 µM): 0.835
- relative viability (NCI-H2405; first compound 0.06325 µM): 0.9
- relative viability (NCI-H2405; first compound 0.2 µM): 0.358
- relative viability (ChaGo-K-1; first compound 0.002 µM): 1.11
- relative viability (ChaGo-K-1; first compound 0.02 µM): 0.998
- relative viability (ChaGo-K-1; first compound 0.06325 µM): 0.528
- relative viability (ChaGo-K-1; first compound 0.2 µM): 0.294
- relative viability (SK-LU-1; first compound 0.002 µM): 1.19
- relative viability (SK-LU-1; first compound 0.006325 µM): 1.02
- relative viability (SK-LU-1; first compound 0.02 µM): 0.716
- relative viability (SK-LU-1; first compound 0.06325 µM): 0.199
- relative viability (SK-LU-1; first compound 0.2 µM): 0.203
